Data published in paper PMC9166630, “SAR Probing of KX2-391 Provided Analogues With Juxtaposed Activity Profile Against Major Oncogenic Kinases” (Frontiers in Oncology, 2022).

Key:
[1] = test system: Hck; test: PamChip tyrosine kinase microarray, Hck; assay type: biochemical, human; conditions: 4e 0.1 µM, HL60 lysate
Protocol: (§1) The changes in kinase activities induced by treatment with 4e were monitored within the HL60 cell lines using PamGene’s (Hertogenbosch, Netherlands) PamChip® peptide microarray profiler, which quantifies the activities of 144 tyrosine kinases (YK) ([29], [30]) (Figure 7). Results are provided as a log fold change (LFC) heatmap and Mean Kinase Statistic. From the LFC it is apparent that compound 4e, at a concentration of 0.1 µM, induced sizable changes to the activity of several kinases within the cell signaling YK profile (Figure 7A).
(§2) An Upstream Kinase tool was used to generate a putative list of kinases responsible for phosphorylating the phospho-sites on the PamChip (Figure 7B) ([31]). It is an interpretation and is highly dependent on the contents of the underlying phosphorylation databases. A Kinase Score was used for ranking kinases based on their significance and specificity in terms of the set of peptides used for the corresponding kinase. Kinase Statistics indicates the overall change of the peptide set that represents the kinase. Kinase statistics value <0 indicates lower kinase activity in the compound spiked lysate and vice versa ([32], [33]). Table 5 lists the 20 most changed kinases within treated HL60 cell lysates by 0.1 μM 4e, ranked according to their Kinase Score.
(§3) The two multiple-kinase tests (PamChip and Phosphokinase Profiler) provided strong evidence of very minor involvement of Src in the cellular activities of 4e. However, the question must be raised about the effect of the 4e on other SRC family kinase (SFK). To address this point, we must highlight that both R&D phosphokinase profiler and PamChip feature Yes, Fgr, Lyn, Lck and Src while Fyn, Hck, Blk and Frk activities are tested in the PamChip only. The signals of SFKs in the R&D Phosphokinase Profiler were too weak to detect in both untreated (control) and 4e-treated HL60 cells. In PamChip assay, most of SFK’s were not ranked in the top 20 affected kinases (Table 5). In addition, their Specificity Score were very low (Table 6) indicating their marginal importance to the cell killing activities of 4e. Fgr kinase which ranked 7th in the list (Table 5) was the only SFK member that seems to be affected by the compound, albeit with low Specificity Score (1.03).
(§4) The compound 4e was spiked into HL60 cell lysate at different concentrations (0.001, 0.01, 0.1, 1, 10 and 50 μM). In addition, DMSO was also spiked in HL60 lysate at low concentration (2% v/v) as control. Samples were profiled on PamGene’s Tyrosine Kinase (PTK) arrays in technical replicates, covering a total of 196 phosphorylation sites. Frozen HL60 cultured cell pellet was sent to PamGene. […] Protein concentration was measured using standard Bradford assay as per PamGene SOPs. […]

[2] = biological target: T1, Ret (Homo sapiens, UniProt P07949); test: PamChip tyrosine kinase microarray, Ret; assay type: biochemical; conditions: 4e 0.1 µM, HL60 lysate
T1 construct: endogenous in cells; host or cells: HL60 lysate
T1 sequence (P07949 29-1114): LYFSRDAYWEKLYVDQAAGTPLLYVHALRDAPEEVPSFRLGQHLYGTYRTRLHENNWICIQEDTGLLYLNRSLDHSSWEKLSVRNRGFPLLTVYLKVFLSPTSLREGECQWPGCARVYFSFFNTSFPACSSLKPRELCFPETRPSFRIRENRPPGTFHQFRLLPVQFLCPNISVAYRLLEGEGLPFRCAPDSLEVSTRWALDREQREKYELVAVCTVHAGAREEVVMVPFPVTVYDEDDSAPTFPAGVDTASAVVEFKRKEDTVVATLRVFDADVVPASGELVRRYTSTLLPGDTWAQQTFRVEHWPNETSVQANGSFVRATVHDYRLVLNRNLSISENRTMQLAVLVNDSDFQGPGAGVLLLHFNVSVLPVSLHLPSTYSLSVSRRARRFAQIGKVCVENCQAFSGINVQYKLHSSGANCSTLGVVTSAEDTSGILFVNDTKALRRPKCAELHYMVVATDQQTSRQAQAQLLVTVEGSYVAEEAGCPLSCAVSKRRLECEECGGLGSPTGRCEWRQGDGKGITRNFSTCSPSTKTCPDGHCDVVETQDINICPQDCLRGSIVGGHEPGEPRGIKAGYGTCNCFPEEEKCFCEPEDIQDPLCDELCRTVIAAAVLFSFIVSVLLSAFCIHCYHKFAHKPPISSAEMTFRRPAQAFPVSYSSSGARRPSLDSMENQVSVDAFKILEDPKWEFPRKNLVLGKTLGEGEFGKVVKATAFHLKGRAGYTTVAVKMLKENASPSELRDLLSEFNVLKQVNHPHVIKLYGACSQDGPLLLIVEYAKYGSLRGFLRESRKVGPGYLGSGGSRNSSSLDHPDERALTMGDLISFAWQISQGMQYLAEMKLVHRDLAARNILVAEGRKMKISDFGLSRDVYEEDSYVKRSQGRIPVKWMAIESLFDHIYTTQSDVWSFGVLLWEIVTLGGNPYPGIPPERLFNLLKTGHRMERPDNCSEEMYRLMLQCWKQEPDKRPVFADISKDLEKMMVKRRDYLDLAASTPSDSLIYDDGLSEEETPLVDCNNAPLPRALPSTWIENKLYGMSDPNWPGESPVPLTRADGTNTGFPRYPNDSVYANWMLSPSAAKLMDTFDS
Protocol: as §1, §2
(§5) The compound 4e was spiked into HL60 cell lysate at different concentrations (0.001, 0.01, 0.1, 1, 10 and 50 μM). In addition, DMSO was also spiked in HL60 lysate at low concentration (2% v/v) as control. Samples were profiled on PamGene’s Tyrosine Kinase (PTK) arrays in technical replicates, covering a total of 196 phosphorylation sites. Frozen HL60 cultured cell pellet was sent to PamGene. At PamGene, cells were lysed using a lysis buffer and proteases inhibitors cocktail. Protein concentration was measured using standard Bradford assay as per PamGene SOPs. These lysates were further used for generating the PTK activity profiles. For spiking, 4e was received as powder form and dissolved in DMSO at PamGene facility followed by storing at -20°C in small aliquots. PamGene used its in-house bioinformatics toolbox in combination with other methods to generate hypotheses of signaling pathways.

[3] = test system: Frk; test: PamChip tyrosine kinase microarray, Frk; assay type: biochemical, human; conditions: 4e 0.1 µM, HL60 lysate
Protocol: as §1, §2, §3, §4

[4] = biological target: T2, Srm (Homo sapiens, UniProt Q9H3Y6); test: PamChip tyrosine kinase microarray, Srm; assay type: biochemical; conditions: 4e 0.1 µM, HL60 lysate
T2 construct: endogenous in cells; host or cells: HL60 lysate
T2 sequence (Q9H3Y6 whole entry): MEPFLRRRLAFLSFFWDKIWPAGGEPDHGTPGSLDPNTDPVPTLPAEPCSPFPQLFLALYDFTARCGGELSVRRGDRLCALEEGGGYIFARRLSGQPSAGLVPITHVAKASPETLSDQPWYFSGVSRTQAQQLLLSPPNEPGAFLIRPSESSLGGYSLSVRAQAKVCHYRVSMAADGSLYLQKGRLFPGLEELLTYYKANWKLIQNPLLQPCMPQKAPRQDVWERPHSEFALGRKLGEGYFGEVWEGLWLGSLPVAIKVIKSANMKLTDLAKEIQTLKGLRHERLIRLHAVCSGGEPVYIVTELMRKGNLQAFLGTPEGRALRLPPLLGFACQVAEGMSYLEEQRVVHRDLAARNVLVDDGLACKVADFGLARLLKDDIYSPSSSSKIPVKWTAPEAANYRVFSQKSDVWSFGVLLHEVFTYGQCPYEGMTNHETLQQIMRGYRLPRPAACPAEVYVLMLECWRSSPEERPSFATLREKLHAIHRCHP
Protocol: as §1, §2, §5

[5] = test system: Ron; test: PamChip tyrosine kinase microarray, Ron; assay type: biochemical, human; conditions: 4e 0.1 µM, HL60 lysate
Protocol: as §1, §2, §5

[6] = test system: Yes; test: PamChip tyrosine kinase microarray, Yes; assay type: biochemical, human; conditions: 4e 0.1 µM, HL60 lysate
Protocol: as §1, §2, §3, §4

[7] = test system: Lyn; test: PamChip tyrosine kinase microarray, Lyn; assay type: biochemical, human; conditions: 4e 0.1 µM, HL60 lysate
Protocol: as §1, §2, §3, §4

[8] = test system: HL60 cells; test: Apoptosis detection (Annexin V-FITC/PI); assay type: cell-based, human; conditions: HL60, 7 µM, 48 h
Protocol: Integral to the cell cycle analysis of 4e, we determined the population of cells undergoing apoptosis, or programmed cell death, by Annexin V-FITC/PI double staining in HL60 cells. Two different concentrations of 4e (3.5 µM and 7 µM) were selected for treatment.
Total apoptosis was detected using Annexin V-FITC Apoptosis Detection kit (Cell Signaling Technology, Danvers, MA, USA) as per the protocol. Briefly, 1.5 x 10^5 of HL60 cells were plated in a 6-well plate with appropriate compound concentrations at 37°C for 48 h. After the incubation completed, cells were washed twice with ice-cold PBS (1X). Subsequently cells were stained with Annexin V-FITC/PI and incubated in the dark on ice for 20 min. After washing with PBS wash, the cells were analyzed by acquiring a minimum total of 5000 events using BD FACSAria III flow cytometer (BD Biosciences, USA).

Q: What does the source list for `O=C(Cc1ccc(NC(=O)c2cccc(Cl)c2)cc1)NCc1ccccc1` [Compound 4e, N-(4-(2-(benzylamino)-2-oxoethyl)phenyl)-3-chlorobenzamide]?
A: Mean Final Score [1]: 1.0872; Mean Kinase Statistic [1]: -0.4497; Mean Significance Score [1]: 0.8248; Mean Specificity Score [1]: 0.2624; Mean Final Score [2]: 2.3893; Mean Kinase Statistic [2]: -0.7112; Mean Significance Score [2]: 1.0953; Mean Specificity Score [2]: 1.2940; Mean Final Score [3]: 1.6587; Mean Kinase Statistic [3]: -0.5116; Mean Significance Score [3]: 1.1484; Mean Specificity Score [3]: 0.5102; Mean Final Score [4]: 2.2692; Mean Kinase Statistic [4]: -0.5863; Mean Significance Score [4]: 1.1518; Mean Specificity Score [4]: 1.1174; Mean Final Score [5]: 1.8398; Mean Kinase Statistic [5]: -0.6967; Mean Significance Score [5]: 1.0254; Mean Specificity Score [5]: 0.8144; Mean Final Score [6]: 1.1516; Mean Kinase Statistic [6]: -0.4139; Mean Significance Score [6]: 1.0126; Mean Specificity Score [6]: 0.1390; Mean Final Score [7]: 1.9530; Mean Kinase Statistic [7]: -0.5775; Mean Significance Score [7]: 1.2715; Mean Specificity Score [7]: 0.6815; percentage of apoptotic cells [8]: increased significantly
